Reference: patent US20250319100A1, “ANTI-TUMOR COMBINED PREPARATION COMPRISING HYDROXYPROGESTERONE CAPROATE AND USE THEREOF” (SHENZHEN EVERGREEN THERAPEUTICS CO., LTD., priority 2021, published 2025)

How the values were obtained:
4T1-hPD-L1 cells = test: Tumor growth inhibition in Balb/c mice subcutaneously inoculated with 4T1 cells overexpressing human PD-L1; format: in vivo; conditions: for Tumor growth inhibition (result in words): FIG. 1, tumor volume growth trend post-administration
Experimental: Antibody Anti-PD-L1 was purchased from Rongchang Biopharmaceuticals (Yantai) Co., Ltd., batch number: RC98-1-A20170426, with a storage solution concentration of 6.87 mg/ml, dissolved in 0.9% sodium chloride solution. Prior to each administration, the Anti-PD-L1 was prepared by diluting it in 0.9% sodium chloride solution to obtain a concentration of 1 mg/ml.
Hydroxyprogesterone Caproate (OHPC) was purchased from Hongyan Pharmaceutical and Chemical Co., Ltd., as a powder. Prior to each administration, OHPC powder was dissolved in DMSO. Once fully dissolved, it was diluted in sesame oil to obtain an OHPC concentration of 4 mg/ml for the investigational drug solution.
Murine breast cancer 4T1 cells were purchased from Beijing Biosynthgene Biotech Co., Ltd. Cells were cultured at 37° C. and 5% CO2 in DMEM culture medium containing 10% inactivated fetal bovine serum. The 4T1 cells were genetically modified using conventional methods to overexpress human PD-L1, and these cells were named 4T1-hPD-1.
Female Balb/c mice (6-9 weeks old, weighing 16-22 g), SPF grade, were subcutaneously inoculated with 5×10^4 cells/0.1 ml concentration of 4T1-hPD-1 cells suspended in PBS at a volume of 0.1 ml on the right side. When the average tumor volume reached approximately 100 mm3, appropriate mice were selected based on tumor volume and weight and were evenly distributed into four experimental groups, each with 8 mice. Drug administration commenced on the same day as outlined in the table below:
Throughout the observation period, tumor volume and animal weight were measured weekly, and the values were recorded. Upon completion of the observation period, the experiment was concluded.
Measurements of tumor volume were conducted twice a week post-grouping using a vernier caliper. Prior to euthanasia, tumor dimensions including the longest and shortest diameters were measured. The formula used to calculate tumor volume: Tumor Volume=0.5×Longest Diameter×Shortest Diameter^2.
Ti represents the mean tumor volume of the treatment group on day i of drug administration, TO denotes the mean tumor volume of the treatment group on day 0 of drug administration. Vi stands for the mean tumor volume of the solvent control group on day i of drug administration, and VO indicates the mean tumor volume of the solvent control group on day 0 of drug administration.
Original data from observations and measurements were recorded. Analysis and processing were based on this raw data. Results were expressed as Mean±Standard Error of Mean (SEM). Statistical analysis was performed on tumor volume data, where P<0.05 was considered statistically significant. Analysis was conducted considering both statistical and biological significance.

[1] = system: CD8+ T cells in tumor tissue; test: Infiltration of CD8+ T cells in tumor tissue (CD8 staining of paraffin tumor sections); format: in vivo, Balb/c mice; conditions: FIGS. 2 and 3, CD8 staining density IOD/area, p<0.01 OHPC group vs control group
Experimental: FIG. 2 illustrates the infiltration of CD8 T cells in mouse tumors post-administration (400× magnification). FIG. 3 presents the analysis of CD8 staining density on tumor sections after administration, represented in integrated optical density (IOD)/area, where ** denotes p<0.01 compared between the OHPC group and the control group. At the conclusion of the experiment, tumor tissue was embedded in paraffin, sectioned, and stained for CD markers. This was conducted to compare the infiltration of CD8+ T cells within tumors across different groups.

## CCCCCC(=O)O[C@]1(C(C)=O)CC[C@H]2[C@@H]3CCC4=CC(=O)CC[C@]4(C)[C@H]3CC[C@@]21C [OHPC, 17α-Hydroxyprogesterone caproate]
4T1-hPD-L1 cells; Day 17, Anti-PD-L1 10 mg/kg intravenous and/or OHPC 20 mg/kg intramuscular, twice per week, Mean ± Standard Error
  Tumor Volume Day 17: 1203 ± 384 mm^3
4T1-hPD-L1 cells; Day 17 versus vehicle (PBS) control, Anti-PD-L1 10 mg/kg intravenous and/or OHPC 20 mg/kg intramuscular, twice per week
  TGITV (tumor growth inhibition rate by tumor volume): −14%
4T1-hPD-L1 cells
  Tumor growth inhibition (result in words): no inhibitory effect
4T1-hPD-L1 cells; listed as hydroxyprogesterone caproate
  Tumor growth inhibition (result in words): augments the anti-tumor activity of the monoclonal antibody Anti-PD-L1
4T1-hPD-L1 cells; baseline before first dose, Mean ± Standard Error, 8 mice per group
  Tumor Volume Pre-administration: 87 ± 24 mm^3
[1]
  Infiltration of CD8+ T cells in tumor tissue (result in words): significantly enhances the infiltration of CD8+ T cells
[1]; listed as Hydroxyprogesterone Caproate (OHPC)
  Infiltration of CD8+ T cells in tumor tissue (result in words): notably enhanced the infiltration of CD8+ T cells
